Test results as given in PubChem BioAssay (NCI).
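Assay format: 96-well plates, 48-hour exposure. GI50: concentration for 50% inhibition of growth. The concentration for full growth arrest is given as TGI.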

Key:
Assay in all cases: NCI tumour cell line growth inhibition, 48 h
IGROV1 ovarian = test system: IGROV1 ovarian
NCI-H23 lung = test system: NCI-H23 lung
SF-268 CNS = test system: SF-268 CNS
PC-3 prostate = test system: PC-3 prostate
SNB-75 CNS = test system: SNB-75 CNS
SNB-19 CNS = test system: SNB-19 CNS
CCRF-CEM leukemia = test system: CCRF-CEM leukemia
MCF7 breast = test system: MCF7 breast
SR leukemia = test system: SR leukemia
M14 melanoma = test system: M14 melanoma

Structure (SMILES)	GI50 (IGROV1 ovarian) [µM]	TGI (IGROV1 ovarian) [µM]	GI50 (NCI-H23 lung) [µM]	TGI (NCI-H23 lung) [µM]	GI50 (SF-268 CNS) [µM]	TGI (SF-268 CNS) [µM]	GI50 (PC-3 prostate) [µM]	TGI (PC-3 prostate) [µM]	GI50 (SNB-75 CNS) [µM]	TGI (SNB-75 CNS) [µM]	GI50 (SNB-19 CNS) [µM]	TGI (SNB-19 CNS) [µM]	GI50 (CCRF-CEM leukemia) [µM]	TGI (CCRF-CEM leukemia) [µM]	GI50 (MCF7 breast) [µM]	TGI (MCF7 breast) [µM]	GI50 (SR leukemia) [µM]	GI50 (M14 melanoma) [µM]	TGI (M14 melanoma) [µM]	TGI (SR leukemia) [µM]
Nc1n[nH]c2ccc([C@H]3[C@@H]4C5CCC(C5)[C@@H]4c4c(ccc5[nH]ncc45)N3S(=O)(=O)C3CC3)cc12 (some centres not stated)	0.269	> 38.7	0.225	9.31	0.618	14	0.185	9.85	0.138	2.42	0.21	> 38.3	0.168	> 21.3	0.2	> 35.9	0.15	0.146	15.1	
Cc1cc(S(=O)(=O)Nc2n[nH]c(-c3ccc(Cl)cc3)c2C#N)c(S)cc1Cl	> 100	> 100	> 100	> 100	> 100	> 100	> 100	> 100	> 100	> 100	> 100	> 100	> 100	> 100	> 100	> 100	> 100	> 100	> 100	> 100
OC1CCC(COC(c2ccccc2)(c2ccccc2)c2ccccc2)O1 (configuration not stated)		36.8		35.4		33.6		24.3		26.5		40		35.8		33.3			32.7	> 10
O=C(NC(=S)Nc1ccc(-c2nc3ccccc3[nH]2)cc1)c1ccc2ccccc2c1	7.66	> 100	17.8	> 100	> 100	> 100	3.26	35.5	1.46	3.38	68.1	> 100	6	> 100	4.56	> 100	0.645	4.79	> 100	11.6
CC12OC(C(=O)C13CC3)C1C(=O)c3cccc(O)c3C(=O)C12 (configuration not stated)	12.2	> 100	7.55	22.7	6.08	> 68.5	10.3	34.3	12.5	> 37.4	10.4	40.1			14.3	> 57.9		24.6	63.5	
Oc1c(CCl)cc(Cl)cc1Cc1cc(Cl)cc(Cc2cc(Cl)cc(CCl)c2O)c1O	3.79	16.7	2.18	7.31	3.18	62.1	2.7	10.1	3.95	80.2	3.02	15.9			2.73	10.9	2.85	3.54	15.7	41
CO[C@@H]1[C@H](N(C)C(=O)c2ccccc2)C[C@@H]2O[C@]1(C)n1c3ccccc3c3c4c(c5c6ccccc6n2c5c31)C(=O)NC4=O	0.523	> 100	0.842	> 100	0.763	> 100	0.562	> 100			> 100	> 100			1.84	> 100	0.504	0.68	> 100	> 100
Clc1ccc(Nc2ncnc3ccccc23)cc1	12.9	> 100	74.6	> 100	38.7	> 100	47	> 100			> 100	> 100	48.8	> 100	30.4	> 100	23	54.9	> 100	60.9
O=C(/C=C/c1cccnc1)c1ccccc1	4.97	25.6	17.3	39.5	14.4	30	11	26.5	15.6	34.6	11.7	25.2	3.2	9.91	2.92	12.4	2			6.21
Fc1ccc(-c2nn3c(COc4ccccc4Cl)nnc3s2)cc1Oc1ccccc1	31	> 100	21.2	43.9	44.8	> 100	22.6	73.8	30.7	93.7	23.4	57.6	> 100	> 100	52.5	> 100		24.4	54.7	
O=P1(O)c2ccccc2CSCc2ccccc21		> 100		> 100		> 100		> 100				> 100		> 100		> 100			> 100	> 100
COc1cc2c3c(n(CCCNC(C)(C)CO)c(=O)c2cc1OC)-c1cc2c(cc1C3=O)OCO2	1.7	> 100	0.799	12.3	3.81	56.6	2.75	16.3	2.58	44	1.83	> 61.2		1.58	0.294	> 50.5		0.754	19	
O=C1/C(=C\c2ccc(Cl)cc2)CN(C(=O)c2ccccc2)C/C1=C\c1ccc(Cl)cc1	3.22	9.78	3.13	12.5	3.74	17.5	2.57	10.1	3.77	> 71.8	3.27	19.3	2.5	> 70.2	0.437	3.09		2.63	7.39	
Cc1ccc([I+]c2ccc(C)cc2)cc1	4.42	> 100	2.03	93.4	7.49	> 100	6.73	> 100	7.44	> 100	16.1	> 100			4.01	> 100		10.8	> 100	
COc1ccc(C(=O)O[C@@H]2CCN3CC[C@H](C)[C@H]23)cc1		> 100		> 100		> 100		> 100		> 100		> 100				> 100			> 100	> 100
